{
  "source": "paper PMC9067983",
  "about": "“Identification of highly selective type II kinase inhibitors with chiral peptidomimetic tails” (Journal of Enzyme Inhibition and Medicinal Chemistry, 2022)",
  "assay_in_all_cases": "kinase selectivity profiling",
  "type_in_all_cases": "biochemical",
  "details_in_all_cases": "10µM ATP, read-out: % inhibition (relative to DMSO)",
  "key": {"STK33": {"target": "T1, STK33 (Homo sapiens, UniProt Q9BYT3)", "T1 construct": "purchased Reaction Biology Corp", "procedure": "(§1) Full panel kinase profiling and kinase IC50 measurement were performed by using Reaction Biology Corp. (San Diego, USA)."}, "LIMK2": {"target": "T2, LIMK2 (Homo sapiens, UniProt P53671)", "T2 construct": "purchased Reaction Biology Corp", "T2 sequence (P53671 whole entry)": "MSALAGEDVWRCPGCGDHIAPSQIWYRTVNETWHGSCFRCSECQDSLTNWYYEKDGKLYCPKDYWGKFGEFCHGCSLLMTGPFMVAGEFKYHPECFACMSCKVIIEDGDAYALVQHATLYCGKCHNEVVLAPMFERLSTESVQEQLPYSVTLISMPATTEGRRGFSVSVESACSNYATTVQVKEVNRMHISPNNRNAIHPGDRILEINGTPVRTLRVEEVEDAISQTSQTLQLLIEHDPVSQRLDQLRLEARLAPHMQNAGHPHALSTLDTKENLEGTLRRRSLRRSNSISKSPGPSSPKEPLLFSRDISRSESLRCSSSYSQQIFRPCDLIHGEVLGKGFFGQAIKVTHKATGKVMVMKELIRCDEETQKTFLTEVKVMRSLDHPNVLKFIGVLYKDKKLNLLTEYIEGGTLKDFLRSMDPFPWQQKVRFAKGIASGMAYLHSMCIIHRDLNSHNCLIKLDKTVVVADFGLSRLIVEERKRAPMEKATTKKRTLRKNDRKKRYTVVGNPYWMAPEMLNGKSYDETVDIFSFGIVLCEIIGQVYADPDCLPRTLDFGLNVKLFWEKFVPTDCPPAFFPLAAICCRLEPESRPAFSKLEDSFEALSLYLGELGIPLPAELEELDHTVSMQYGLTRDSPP", "procedure": "as §1"}, "SBK1": {"target": "T3, SBK1 (Homo sapiens, UniProt Q52WX2)", "T3 construct": "purchased Reaction Biology Corp", "procedure": "as §1"}, "PKCnu/PRKD3": {"target": "T4, PKCnu/PRKD3 (Homo sapiens, UniProt O94806)", "T4 construct": "purchased Reaction Biology Corp", "procedure": "as §1"}, "PKD2/PRKD2": {"target": "T5, PKD2/PRKD2 (Homo sapiens, UniProt Q9BZL6)", "T5 construct": "purchased Reaction Biology Corp", "procedure": "as §1"}, "RSK4": {"target": "T6, RSK4 (Homo sapiens, UniProt Q9UK32)", "T6 construct": "purchased Reaction Biology Corp", "procedure": "as §1"}, "JAK3": {"target": "T7, JAK3 (Homo sapiens, UniProt P52333)", "T7 construct": "purchased Reaction Biology Corp", "procedure": "as §1"}, "RSK2": {"target": "T8, RSK2 (Homo sapiens, UniProt P51812)", "T8 construct": "purchased Reaction Biology Corp", "T8 sequence (P51812 whole entry)": "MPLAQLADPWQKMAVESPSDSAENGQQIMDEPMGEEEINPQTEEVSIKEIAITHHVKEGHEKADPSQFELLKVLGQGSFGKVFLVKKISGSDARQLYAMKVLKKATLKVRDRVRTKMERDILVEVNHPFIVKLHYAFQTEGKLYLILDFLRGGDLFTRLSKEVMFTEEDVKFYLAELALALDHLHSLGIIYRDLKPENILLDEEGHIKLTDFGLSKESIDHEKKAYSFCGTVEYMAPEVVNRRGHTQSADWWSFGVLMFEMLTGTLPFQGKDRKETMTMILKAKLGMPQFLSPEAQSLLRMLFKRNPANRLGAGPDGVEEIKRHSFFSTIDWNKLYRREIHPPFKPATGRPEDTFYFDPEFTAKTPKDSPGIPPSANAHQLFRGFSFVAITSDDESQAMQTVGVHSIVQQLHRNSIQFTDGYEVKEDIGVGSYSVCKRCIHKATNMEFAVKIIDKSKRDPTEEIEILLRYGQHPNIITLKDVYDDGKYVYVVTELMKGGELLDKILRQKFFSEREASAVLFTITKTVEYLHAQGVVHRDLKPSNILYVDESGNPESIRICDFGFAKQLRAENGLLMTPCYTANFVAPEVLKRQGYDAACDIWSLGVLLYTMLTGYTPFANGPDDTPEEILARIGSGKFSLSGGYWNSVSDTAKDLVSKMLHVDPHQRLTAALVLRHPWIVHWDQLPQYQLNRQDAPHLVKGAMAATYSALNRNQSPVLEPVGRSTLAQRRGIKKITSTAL", "procedure": "as §1"}, "PKCmu/PRKD1": {"target": "T9, PKCmu/PRKD1 (Homo sapiens, UniProt Q15139)", "T9 construct": "purchased Reaction Biology Corp", "procedure": "as §1"}, "Blk": {"target": "T10, Blk (Homo sapiens, UniProt P51451)", "T10 construct": "purchased Reaction Biology Corp", "procedure": "as §1"}, "TNIK": {"target": "T11, TNIK (Homo sapiens, UniProt Q9UKE5)", "T11 construct": "purchased Reaction Biology Corp", "procedure": "as §1"}, "RON/MST1R": {"target": "T12, RON/MST1R (Homo sapiens, UniProt Q04912)", "T12 construct": "purchased Reaction Biology Corp", "procedure": "as §1"}, "EPHA8": {"target": "T13, EPHA8 (Homo sapiens, UniProt P29322)", "T13 construct": "purchased Reaction Biology Corp", "procedure": "as §1"}, "CDK19/cyclin C": {"target": "T14, CDK19/cyclin C (Homo sapiens, UniProt Q9BWU1)", "T14 construct": "purchased Reaction Biology Corp", "procedure": "as §1"}, "CDK8/cyclin C": {"target": "T15, CDK8/cyclin C (Homo sapiens, UniProt P49336)", "T15 construct": "purchased Reaction Biology Corp", "procedure": "as §1"}, "KHS/MAP4K5": {"target": "T16, KHS/MAP4K5 (Homo sapiens, UniProt Q9Y4K4)", "T16 construct": "purchased Reaction Biology Corp", "procedure": "as §1"}, "PIM2": {"target": "T17, PIM2 (Homo sapiens, UniProt Q9P1W9)", "T17 construct": "purchased Reaction Biology Corp", "procedure": "as §1"}, "MNK1": {"target": "T18, MNK1 (Homo sapiens, UniProt Q9BUB5)", "T18 construct": "purchased Reaction Biology Corp", "T18 sequence (Q9BUB5 whole entry)": "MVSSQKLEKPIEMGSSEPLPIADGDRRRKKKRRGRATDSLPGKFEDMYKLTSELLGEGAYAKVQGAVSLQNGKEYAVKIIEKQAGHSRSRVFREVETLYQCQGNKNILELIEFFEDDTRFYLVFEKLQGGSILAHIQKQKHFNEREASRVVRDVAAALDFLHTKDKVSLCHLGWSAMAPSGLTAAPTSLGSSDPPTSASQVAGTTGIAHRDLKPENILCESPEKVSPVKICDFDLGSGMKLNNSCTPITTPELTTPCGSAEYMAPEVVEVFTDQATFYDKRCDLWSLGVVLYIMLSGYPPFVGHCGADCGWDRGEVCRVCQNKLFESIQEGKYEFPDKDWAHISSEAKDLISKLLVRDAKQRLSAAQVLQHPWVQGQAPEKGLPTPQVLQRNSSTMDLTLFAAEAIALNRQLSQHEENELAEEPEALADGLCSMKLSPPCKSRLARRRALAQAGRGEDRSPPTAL", "procedure": "as §1"}, "ULK2": {"target": "T19, ULK2 (Homo sapiens, UniProt Q8IYT8)", "T19 construct": "purchased Reaction Biology Corp", "procedure": "as §1"}, "EPHB4": {"target": "T20, EPHB4 (Homo sapiens, UniProt P54760)", "T20 construct": "purchased Reaction Biology Corp", "procedure": "as §1"}, "MINK/MINK1": {"target": "T21, MINK/MINK1 (Homo sapiens, UniProt Q8N4C8)", "T21 construct": "purchased Reaction Biology Corp", "procedure": "as §1"}, "TAK1": {"target": "T22, TAK1 (Homo sapiens, UniProt O43318)", "T22 construct": "purchased Reaction Biology Corp", "procedure": "as §1"}, "ALK4/ACVR1B": {"target": "T23, ALK4/ACVR1B (Homo sapiens, UniProt P36896)", "T23 construct": "purchased Reaction Biology Corp", "procedure": "as §1"}, "SRMS": {"target": "T24, SRMS (Homo sapiens, UniProt Q9H3Y6)", "T24 construct": "purchased Reaction Biology Corp", "procedure": "as §1"}, "PKN1/PRK1": {"target": "T25, PKN1/PRK1 (Homo sapiens, UniProt Q16512)", "T25 construct": "purchased Reaction Biology Corp", "procedure": "as §1"}, "MASTL": {"target": "T26, MASTL (Homo sapiens, UniProt Q96GX5)", "T26 construct": "purchased Reaction Biology Corp", "procedure": "as §1"}, "GRK5": {"target": "T27, GRK5 (Homo sapiens, UniProt P34947)", "T27 construct": "purchased Reaction Biology Corp", "procedure": "as §1"}, "TESK2": {"target": "T28, TESK2 (Homo sapiens, UniProt Q96S53)", "T28 construct": "purchased Reaction Biology Corp", "procedure": "as §1"}, "EPHB2": {"target": "T29, EPHB2 (Homo sapiens, UniProt P29323)", "T29 construct": "purchased Reaction Biology Corp", "procedure": "as §1"}, "SLK/STK2": {"target": "T30, SLK/STK2 (Homo sapiens, UniProt Q9H2G2)", "T30 construct": "purchased Reaction Biology Corp", "procedure": "as §1"}, "PASK": {"target": "T31, PASK (Homo sapiens, UniProt Q96RG2)", "T31 construct": "purchased Reaction Biology Corp", "procedure": "as §1"}, "MELK": {"target": "T32, MELK (Homo sapiens, UniProt Q14680)", "T32 construct": "purchased Reaction Biology Corp", "procedure": "as §1"}, "WNK1": {"target": "T33, WNK1 (Homo sapiens, UniProt Q9H4A3)", "T33 construct": "purchased Reaction Biology Corp", "T33 sequence (Q9H4A3 whole entry)": "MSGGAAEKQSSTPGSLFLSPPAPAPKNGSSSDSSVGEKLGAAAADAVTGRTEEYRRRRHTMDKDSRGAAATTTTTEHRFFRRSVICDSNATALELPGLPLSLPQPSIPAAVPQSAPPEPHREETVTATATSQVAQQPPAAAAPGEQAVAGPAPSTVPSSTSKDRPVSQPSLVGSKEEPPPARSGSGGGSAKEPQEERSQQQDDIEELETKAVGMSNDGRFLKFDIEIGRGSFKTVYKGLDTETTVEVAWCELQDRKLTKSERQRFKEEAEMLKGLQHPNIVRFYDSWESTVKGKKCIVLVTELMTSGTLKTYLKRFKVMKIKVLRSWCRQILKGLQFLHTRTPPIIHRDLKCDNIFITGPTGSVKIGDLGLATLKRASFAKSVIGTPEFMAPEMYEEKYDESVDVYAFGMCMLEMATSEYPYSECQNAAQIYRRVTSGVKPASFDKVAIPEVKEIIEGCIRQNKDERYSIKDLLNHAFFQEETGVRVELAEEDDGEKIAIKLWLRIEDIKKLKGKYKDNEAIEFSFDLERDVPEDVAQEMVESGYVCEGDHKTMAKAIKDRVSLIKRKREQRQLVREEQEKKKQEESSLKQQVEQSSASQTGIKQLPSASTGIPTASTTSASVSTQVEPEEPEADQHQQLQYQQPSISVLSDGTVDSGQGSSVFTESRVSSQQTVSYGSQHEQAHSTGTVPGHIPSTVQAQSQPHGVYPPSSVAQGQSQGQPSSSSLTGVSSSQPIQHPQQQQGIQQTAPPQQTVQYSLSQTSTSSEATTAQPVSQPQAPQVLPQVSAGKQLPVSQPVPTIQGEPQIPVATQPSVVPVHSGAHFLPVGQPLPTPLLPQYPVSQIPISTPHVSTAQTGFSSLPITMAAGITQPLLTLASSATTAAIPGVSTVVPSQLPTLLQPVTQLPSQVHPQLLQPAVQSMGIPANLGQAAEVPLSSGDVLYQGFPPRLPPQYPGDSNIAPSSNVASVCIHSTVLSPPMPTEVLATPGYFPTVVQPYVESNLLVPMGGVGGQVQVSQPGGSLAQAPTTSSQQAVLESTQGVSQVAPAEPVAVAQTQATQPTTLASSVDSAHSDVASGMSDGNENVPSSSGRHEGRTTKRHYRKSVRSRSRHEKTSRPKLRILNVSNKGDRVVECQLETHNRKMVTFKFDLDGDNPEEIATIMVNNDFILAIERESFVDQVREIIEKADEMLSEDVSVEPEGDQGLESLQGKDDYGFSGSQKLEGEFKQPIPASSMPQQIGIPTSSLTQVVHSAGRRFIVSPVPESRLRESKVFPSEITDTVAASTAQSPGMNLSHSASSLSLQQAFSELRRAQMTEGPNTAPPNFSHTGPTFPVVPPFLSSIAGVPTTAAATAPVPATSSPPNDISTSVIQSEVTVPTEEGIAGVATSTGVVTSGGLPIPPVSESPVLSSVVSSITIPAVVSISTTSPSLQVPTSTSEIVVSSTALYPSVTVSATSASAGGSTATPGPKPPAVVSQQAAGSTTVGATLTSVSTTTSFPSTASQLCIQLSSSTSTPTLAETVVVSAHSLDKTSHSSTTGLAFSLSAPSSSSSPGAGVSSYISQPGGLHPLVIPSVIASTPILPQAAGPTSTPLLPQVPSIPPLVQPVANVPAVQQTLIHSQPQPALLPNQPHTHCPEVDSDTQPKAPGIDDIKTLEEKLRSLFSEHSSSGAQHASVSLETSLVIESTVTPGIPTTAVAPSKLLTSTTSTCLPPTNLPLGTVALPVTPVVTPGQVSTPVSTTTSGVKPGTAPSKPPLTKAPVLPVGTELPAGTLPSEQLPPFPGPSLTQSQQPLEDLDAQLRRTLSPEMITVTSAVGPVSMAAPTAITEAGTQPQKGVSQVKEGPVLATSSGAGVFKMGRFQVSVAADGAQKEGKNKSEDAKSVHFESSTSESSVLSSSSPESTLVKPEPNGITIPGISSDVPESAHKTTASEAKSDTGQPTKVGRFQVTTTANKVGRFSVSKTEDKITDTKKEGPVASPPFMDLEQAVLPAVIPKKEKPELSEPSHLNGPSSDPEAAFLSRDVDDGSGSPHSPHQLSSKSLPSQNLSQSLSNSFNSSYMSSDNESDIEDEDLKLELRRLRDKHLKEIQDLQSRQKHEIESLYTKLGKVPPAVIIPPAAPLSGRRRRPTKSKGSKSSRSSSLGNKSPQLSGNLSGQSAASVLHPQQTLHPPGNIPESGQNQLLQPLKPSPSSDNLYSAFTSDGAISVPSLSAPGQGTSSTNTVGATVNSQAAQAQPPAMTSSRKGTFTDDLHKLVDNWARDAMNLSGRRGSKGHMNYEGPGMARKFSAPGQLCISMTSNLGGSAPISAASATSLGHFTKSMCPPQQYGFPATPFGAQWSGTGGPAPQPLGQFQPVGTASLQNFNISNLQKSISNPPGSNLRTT", "procedure": "as §1"}, "TTBK1": {"target": "T34, TTBK1 (Homo sapiens, UniProt Q5TCY1)", "T34 construct": "purchased Reaction Biology Corp", "procedure": "as §1"}, "GCK/MAP4K2": {"target": "T35, GCK/MAP4K2 (Homo sapiens, UniProt Q12851)", "T35 construct": "purchased Reaction Biology Corp", "procedure": "as §1"}, "TXK": {"target": "T36, TXK (Homo sapiens, UniProt P42681)", "T36 construct": "purchased Reaction Biology Corp", "procedure": "as §1"}, "PIM1": {"target": "T37, PIM1 (Homo sapiens, UniProt P11309)", "T37 construct": "purchased Reaction Biology Corp", "T37 sequence (P11309 whole entry)": "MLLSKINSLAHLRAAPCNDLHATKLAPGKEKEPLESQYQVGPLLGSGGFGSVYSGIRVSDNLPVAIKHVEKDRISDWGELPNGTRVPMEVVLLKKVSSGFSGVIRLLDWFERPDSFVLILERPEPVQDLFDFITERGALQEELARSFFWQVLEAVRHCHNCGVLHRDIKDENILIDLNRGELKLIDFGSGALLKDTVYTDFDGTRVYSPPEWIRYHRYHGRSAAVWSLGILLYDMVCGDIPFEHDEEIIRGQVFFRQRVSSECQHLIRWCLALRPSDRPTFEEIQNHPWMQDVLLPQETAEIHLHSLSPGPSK", "procedure": "as §1"}, "NEK5": {"target": "T38, NEK5 (Homo sapiens, UniProt Q6P3R8)", "T38 construct": "purchased Reaction Biology Corp", "procedure": "as §1"}, "MYLK3": {"target": "T39, MYLK3 (Homo sapiens, UniProt Q32MK0)", "T39 construct": "purchased Reaction Biology Corp", "procedure": "as §1"}, "IRAK1": {"target": "T40, IRAK1 (Homo sapiens, UniProt P51617)", "T40 construct": "purchased Reaction Biology Corp", "procedure": "as §1"}, "ARAF": {"target": "T41, ARAF (Homo sapiens, UniProt P10398)", "T41 construct": "purchased Reaction Biology Corp", "procedure": "as §1"}, "HIPK3": {"target": "T42, HIPK3 (Homo sapiens, UniProt Q9H422)", "T42 construct": "purchased Reaction Biology Corp", "procedure": "as §1"}, "TSSK3/STK22C": {"target": "T43, TSSK3/STK22C (Homo sapiens, UniProt Q96PN8)", "T43 construct": "purchased Reaction Biology Corp", "T43 sequence (Q96PN8 whole entry)": "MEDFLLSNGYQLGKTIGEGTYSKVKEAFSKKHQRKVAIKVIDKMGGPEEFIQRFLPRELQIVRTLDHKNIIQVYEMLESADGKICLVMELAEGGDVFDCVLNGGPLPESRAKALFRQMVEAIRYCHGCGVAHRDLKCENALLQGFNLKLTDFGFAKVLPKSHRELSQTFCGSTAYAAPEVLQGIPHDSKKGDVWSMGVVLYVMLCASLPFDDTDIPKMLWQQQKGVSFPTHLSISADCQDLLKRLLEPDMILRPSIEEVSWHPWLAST", "procedure": "as §1"}},
  "note": "Where a SMILES comes first, the peptide text is derived from it. [ ]: non-standard residue; d: D form. The star is where a group is joined. X1 = Cc1ccc(Nc2ncc3c(n2)N(C)C(=O)N(c2cc(C(=O)*)ccc2C)C3)cn1; Aib = CC(C)(N)C(=O)O",
  "data": [
    {"smiles": "Cc1ccc(Nc2ncc3c(n2)N(C)C(=O)N(c2cc(C(=O)N[C@H](C(=O)N4CCC[C@H]4C(=O)NC(C)(C)C(=O)N[C@@H](CC(C)C)C(=O)N(C)C)C(C)C)ccc2C)C3)cn1", "note": "[7a, (S)-N-(1-(((S)-1-(dimethylamino)-4-methyl-1-oxopentan-2-yl)amino)-2-methyl-1-oxopropan-2-yl)-1-((4-methyl-3-(1-methyl-7-((6-methylpyridin-3-yl)amino)-2-oxo-1,4-dihydropyrimido[4,5-d]pyrimidin-3(2H)-yl)benzoyl)-L-valyl)pyrrolidine-2-carboxamide] (X1-VP[Aib]L-NMe2)", "values": [
      {"measurement": "inhibition at 1 µM", "setting": "STK33", "result": 0, "unit": "%"},
      {"measurement": "inhibition at 1 µM", "setting": "LIMK2", "result": 12, "unit": "%"},
      {"measurement": "inhibition at 1 µM", "setting": "SBK1", "result": 0, "unit": "%"},
      {"measurement": "inhibition at 1 µM", "setting": "PKCnu/PRKD3", "result": 0, "unit": "%"},
      {"measurement": "inhibition at 1 µM", "setting": "PKD2/PRKD2", "result": 0, "unit": "%"},
      {"measurement": "inhibition at 1 µM", "setting": "RSK4", "result": 0, "unit": "%"},
      {"measurement": "inhibition at 1 µM", "setting": "JAK3", "result": 0, "unit": "%"},
      {"measurement": "inhibition at 1 µM", "setting": "RSK2", "result": 0, "unit": "%"},
      {"measurement": "inhibition at 1 µM", "setting": "PKCmu/PRKD1", "result": 0, "unit": "%"},
      {"measurement": "inhibition at 1 µM", "setting": "Blk", "result": 73, "unit": "%"},
      {"measurement": "inhibition at 1 µM", "setting": "TNIK", "result": 6, "unit": "%"},
      {"measurement": "inhibition at 1 µM", "setting": "RON/MST1R", "result": 27, "unit": "%"},
      {"measurement": "inhibition at 1 µM", "setting": "EPHA8", "result": 0, "unit": "%"},
      {"measurement": "inhibition at 1 µM", "setting": "CDK19/cyclin C", "result": 0, "unit": "%"},
      {"measurement": "inhibition at 1 µM", "setting": "CDK8/cyclin C", "result": 2, "unit": "%"},
      {"measurement": "inhibition at 1 µM", "setting": "KHS/MAP4K5", "result": 23, "unit": "%"},
      {"measurement": "inhibition at 1 µM", "setting": "PIM2", "result": 0, "unit": "%"},
      {"measurement": "inhibition at 1 µM", "setting": "MNK1", "result": 8, "unit": "%"},
      {"measurement": "inhibition at 1 µM", "setting": "ULK2", "result": 5, "unit": "%"},
      {"measurement": "inhibition at 1 µM", "setting": "EPHB4", "result": 16, "unit": "%"},
      {"measurement": "inhibition at 1 µM", "setting": "MINK/MINK1", "result": 2, "unit": "%"},
      {"measurement": "inhibition at 1 µM", "setting": "TAK1", "result": 4, "unit": "%"},
      {"measurement": "inhibition at 1 µM", "setting": "ALK4/ACVR1B", "result": 0, "unit": "%"},
      {"measurement": "inhibition at 1 µM", "setting": "SRMS", "result": 4, "unit": "%"},
      {"measurement": "inhibition at 1 µM", "setting": "PKN1/PRK1", "result": 1, "unit": "%"},
      {"measurement": "inhibition at 1 µM", "setting": "MASTL", "result": 7, "unit": "%"},
      {"measurement": "inhibition at 1 µM", "setting": "GRK5", "result": 1, "unit": "%"},
      {"measurement": "inhibition at 1 µM", "setting": "TESK2", "result": 4, "unit": "%"},
      {"measurement": "inhibition at 1 µM", "setting": "EPHB2", "result": 29, "unit": "%"},
      {"measurement": "inhibition at 1 µM", "setting": "SLK/STK2", "result": 9, "unit": "%"},
      {"measurement": "inhibition at 1 µM", "setting": "PASK", "result": 0, "unit": "%"},
      {"measurement": "inhibition at 1 µM", "setting": "MELK", "result": 4, "unit": "%"},
      {"measurement": "inhibition at 1 µM", "setting": "WNK1", "result": 0, "unit": "%"},
      {"measurement": "inhibition at 1 µM", "setting": "TTBK1", "result": 0, "unit": "%"},
      {"measurement": "inhibition at 1 µM", "setting": "GCK/MAP4K2", "result": 13, "unit": "%"},
      {"measurement": "inhibition at 1 µM", "setting": "TXK", "result": 0, "unit": "%"},
      {"measurement": "inhibition at 1 µM", "setting": "PIM1", "result": 2, "unit": "%"},
      {"measurement": "inhibition at 1 µM", "setting": "NEK5", "result": 0, "unit": "%"},
      {"measurement": "inhibition at 1 µM", "setting": "MYLK3", "result": 0, "unit": "%"},
      {"measurement": "inhibition at 1 µM", "setting": "IRAK1", "result": 14, "unit": "%"},
      {"measurement": "inhibition at 1 µM", "setting": "ARAF", "result": 34, "unit": "%"},
      {"measurement": "inhibition at 1 µM", "setting": "HIPK3", "result": 0, "unit": "%"},
      {"measurement": "inhibition at 1 µM", "setting": "TSSK3/STK22C", "result": 3, "unit": "%"}
    ]}
  ]
}
